Results reported in patent US20240391923A1, “METHIONINE ADENOSYLTRANSFERASE 2A INHIBITOR FOR TREATING MTAP DELETION-TYPE CANCER” (SUZHOU GENHOUSE BIO CO., LTD., priority 2022, published 2024).
Like-named read-outs stand apart in the source and are kept apart here.

Key:
Hut-78 cell strain = experiment: Tumor cell proliferation inhibition assay (CellTiter-Glo), Hut-78; format: cell-based; settings: Homo sapiens, HuT78, 120 h, Hut-78 cells, 5-day treatment
Procedure: After the HCT116-MTAP-knockout (−/−) cell strain, the HCT116-MTAP wild-type(+/+)-cell strain, the DOHH-2 cell strain, or the Hut-78 cell strain was treated with the test compound for 5 days, the ATP level was measured using a CellTiter-Glo kit of Promega to evaluate the inhibition of the test compound against the growth of the tumor cell strain.
In the present application, the HCT116-MTAP-knockout (−/−) cell strain, the HCT116-MTAP wild-type (+/+)-cell strain, the DOHH-2 cell strain, or the Hut-78 cell strain was seeded into a 96-well cell culture plate at an appropriate cell density. After 24 h, the cells were treated using the test compounds diluted 1:3 fold at the highest concentration of 10 μM for 10 gradients, and a DMSO treatment group was set up separately. The cells were cultured in a 37° C./5% CO2 incubator for 5 days.

[1] = system: HCT116-MTAP wild-type (+/+)-cell strain; experiment: Tumor cell proliferation inhibition assay (CellTiter-Glo), HCT116-MTAP wild-type (+/+); format: cell-based; settings: Homo sapiens, 120 h, HCT116-MTAP wild-type (+/+) cells, 5-day treatment
Summary of the method: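 Growth inhibition is evaluated from cellular ATP measured with CellTiter-Glo once cells have been treated for 5 days. Compounds are added 24 h after seeding as ten threefold dilutions starting at 10 μM, with a separate DMSO treatment group.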

[2] = system: SDMA in human colon cancer cell line HCT116; experiment: Cell symmetric dimethylarginine (SDMA) test, In-cell Western, HCT116 (MTAP wild-type); format: cell-based; settings: Homo sapiens, HCT-116, 96 h
Summary of the method: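 SDMA level, an indirect readout of cellular MAT2A inhibition, measured by In-cell Western as background-subtracted 800/700 nm signal against DRAQ5. Cells exposed 4 days to six 1:4-diluted doses from 6 μM; inhibition relative to DMSO, IC50 from sigmoidal fit.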

[3] = target: MAT2A recombinant protein (Homo sapiens, UniProt P31153); experiment: MAT2A inhibitory activity (malachite green colorimetric enzyme assay); format: biochemical
MAT2A recombinant protein, sequence (P31153 whole entry): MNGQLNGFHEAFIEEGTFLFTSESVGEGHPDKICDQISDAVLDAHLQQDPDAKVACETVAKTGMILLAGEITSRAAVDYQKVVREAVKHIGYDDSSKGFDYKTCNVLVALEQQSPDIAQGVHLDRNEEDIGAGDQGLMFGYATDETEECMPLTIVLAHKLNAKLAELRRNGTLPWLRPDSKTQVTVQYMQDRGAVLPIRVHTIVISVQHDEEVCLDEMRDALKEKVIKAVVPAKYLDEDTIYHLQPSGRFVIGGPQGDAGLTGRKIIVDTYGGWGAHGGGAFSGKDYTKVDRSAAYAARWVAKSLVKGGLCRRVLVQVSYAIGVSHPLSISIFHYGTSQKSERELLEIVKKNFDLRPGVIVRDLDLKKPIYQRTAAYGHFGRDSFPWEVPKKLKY
Summary of the method: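 Compounds tested over 10 points, 3-fold dilutions, top final concentration 1000 nM. Enzyme reaction: MAT2A, L-methionine, ATP, room temperature, 60 min, in HEPES pH 7.5 buffer with KCl, MgCl2 and DTT; inorganic phosphate read colorimetrically (malachite green, A630). Inhibition vs log concentration fitted for IC50.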

[4] = system: SDMA in HCT116-MTAP-knockout cell line; experiment: Cell symmetric dimethylarginine (SDMA) test, In-cell Western, HCT116-MTAP-knockout; format: cell-based; settings: Homo sapiens, 96 h
[5] = IC50 score, read-out: Tumor cell 5-day relative growth inhibition (Hut-78) (nM), score
[6] = IC50 value, read-out: Tumor cell 5-day relative growth inhibition (Hut-78)
[7] = IC50 score, read-out: Tumor cell 5-day relative growth inhibition (HCT116-MTAP+/+) (nM), score
[8] = IC50 value, read-out: Tumor cell 5-day relative growth inhibition (HCT116-MTAP+/+)
[9] = IC50 score class, read-out: Cell 96 h SDMA Inhibition (HCT116-MTAP+/+) (score)
[10] = read-out: Cell 96 h SDMA inhibition (HCT116-MTAP+/+)
[11] = IC50 score class, read-out: MAT2A Inhibition (score)
[12] = IC50 score class, read-out: Cell 96 h SDMA Inhibition (HCT116-MTAP−/−) (score)
[13] = read-out: Cell 96 h SDMA Inhibition (HCT116-MTAP−/−)

Structure (SMILES)	IC50 (Hut-78 cell strain; [5]) [nM]	IC50 (Hut-78 cell strain; [6]) [nM]	IC50 [1, 7] [nM]	IC50 [1, 8] [nM]	IC50 [2, 9] [nM]	IC50 [2, 10] [nM]	IC50 [3, 11] [nM]	IC50 ([3]; read-out: MAT2A Inhibition) [nM]	IC50 [4, 12] [nM]	IC50 [4, 13] [nM]
Cn1cc2c(n1)c(=O)n(-c1cncc(O)c1)c1nc(C(F)(F)F)ccc21 [Compound B221]	≥ 2000	10600	≥ 2000	> 2000	200 to 1000	475	< 100	52.7	1000 to 3000	2540
Cc1ncccc1-n1c(=O)c2[nH]ncc2c2ccc(C3CC3)nc21 [Compound B95]	< 500	18.8	500 to 2000	621	> 3000	> 3000	< 100	48.2	< 200	4
CCn1nc2c(=O)n(-c3cccnc3)c3cc(Cl)ccc3c2c1F [Compound B33]	500 to 2000	1100	≥ 2000	> 2000	> 3000	4880	< 100	25.6	1000 to 3000	2650
COc1ccc(-n2cc3c(n2)c(=O)n(-c2ccccc2)c2nc(C(F)(F)F)ccc32)cc1 [Compound B218]	< 500	130	≥ 2000	3990	> 3000	> 3000	< 100	77.9	< 200	39.5
Cc1[nH]nc2c(=O)n(-c3cccnc3)c3nc(C(F)(F)F)ccc3c12 [Compound B216]	< 500	245	≥ 2000	3590	200 to 1000	433	< 100	25.3	< 200	134
Cc1ccc(-n2c(=O)c3nn(C)cc3c3ccc(C(F)(F)F)nc32)cn1 [Compound B223]	500 to 2000	1360	≥ 2000	> 2000	200 to 1000	583	–	–	200 to 1000	692
Cn1cc2c(n1)c(=O)n(-c1cnccn1)c1nc(C(F)(F)F)ccc21 [Compound B227]	≥ 2000	4710	≥ 2000	≥ 2000	> 3000	3030	< 100	51.8	> 3000	4690
CNC(=O)CC1N=c2c(c3ccc(Cl)cc3n(-c3cccnc3)c2=O)=N1 (stereo not shown) [Compound B37]	≥ 2000	6430	≥ 2000	> 2000	1000 to 3000	1260	< 100	51.7	200 to 1000	888
Cc1ncccc1-n1c(=O)c2nn(C3CC3)cc2c2ccc(C(F)(F)F)nc21 [Compound B211]	< 500	47.7	500 to 2000	1150	1000 to 3000	1020	< 100	35.8	< 200	39.1
Cc1cncc(-n2c(=O)c3nn(C)cc3c3ccc(C(F)(F)F)nc32)c1 [Compound B217]	≥ 2000	5430	≥ 2000	> 2000	> 3000	> 3000	–	–	1000 to 3000	1820
Cn1cc2c(n1)c(=O)n(-c1cccnc1C1CC1)c1nc(C(F)(F)F)ccc21 (single isomer, unassigned) [Compound B213]	< 500	21.8	500 to 2000	1740	200 to 1000	206	–	–	< 200	25
Cc1ncccc1-n1c(=O)c2[nH]ncc2c2ccc(Cl)cc21 [Compound B103]	< 500	14.6	–	–	< 200	53.9	< 100	54.8	< 200	27.8
